{"source": "ChEMBL document CHEMBL1142622", "about": "“Inhibition of phospholipase cgamma1 and cancer cell proliferation by triterpene esters from Uncaria rhynchophylla” (J Nat Prod, 2000)", "key": {"[1]": {"target": "T1, 1-phosphatidylinositol 4,5-bisphosphate phosphodiesterase gamma-1 (Homo sapiens, UniProt P19174)", "T1 sequence (P19174 whole entry)": "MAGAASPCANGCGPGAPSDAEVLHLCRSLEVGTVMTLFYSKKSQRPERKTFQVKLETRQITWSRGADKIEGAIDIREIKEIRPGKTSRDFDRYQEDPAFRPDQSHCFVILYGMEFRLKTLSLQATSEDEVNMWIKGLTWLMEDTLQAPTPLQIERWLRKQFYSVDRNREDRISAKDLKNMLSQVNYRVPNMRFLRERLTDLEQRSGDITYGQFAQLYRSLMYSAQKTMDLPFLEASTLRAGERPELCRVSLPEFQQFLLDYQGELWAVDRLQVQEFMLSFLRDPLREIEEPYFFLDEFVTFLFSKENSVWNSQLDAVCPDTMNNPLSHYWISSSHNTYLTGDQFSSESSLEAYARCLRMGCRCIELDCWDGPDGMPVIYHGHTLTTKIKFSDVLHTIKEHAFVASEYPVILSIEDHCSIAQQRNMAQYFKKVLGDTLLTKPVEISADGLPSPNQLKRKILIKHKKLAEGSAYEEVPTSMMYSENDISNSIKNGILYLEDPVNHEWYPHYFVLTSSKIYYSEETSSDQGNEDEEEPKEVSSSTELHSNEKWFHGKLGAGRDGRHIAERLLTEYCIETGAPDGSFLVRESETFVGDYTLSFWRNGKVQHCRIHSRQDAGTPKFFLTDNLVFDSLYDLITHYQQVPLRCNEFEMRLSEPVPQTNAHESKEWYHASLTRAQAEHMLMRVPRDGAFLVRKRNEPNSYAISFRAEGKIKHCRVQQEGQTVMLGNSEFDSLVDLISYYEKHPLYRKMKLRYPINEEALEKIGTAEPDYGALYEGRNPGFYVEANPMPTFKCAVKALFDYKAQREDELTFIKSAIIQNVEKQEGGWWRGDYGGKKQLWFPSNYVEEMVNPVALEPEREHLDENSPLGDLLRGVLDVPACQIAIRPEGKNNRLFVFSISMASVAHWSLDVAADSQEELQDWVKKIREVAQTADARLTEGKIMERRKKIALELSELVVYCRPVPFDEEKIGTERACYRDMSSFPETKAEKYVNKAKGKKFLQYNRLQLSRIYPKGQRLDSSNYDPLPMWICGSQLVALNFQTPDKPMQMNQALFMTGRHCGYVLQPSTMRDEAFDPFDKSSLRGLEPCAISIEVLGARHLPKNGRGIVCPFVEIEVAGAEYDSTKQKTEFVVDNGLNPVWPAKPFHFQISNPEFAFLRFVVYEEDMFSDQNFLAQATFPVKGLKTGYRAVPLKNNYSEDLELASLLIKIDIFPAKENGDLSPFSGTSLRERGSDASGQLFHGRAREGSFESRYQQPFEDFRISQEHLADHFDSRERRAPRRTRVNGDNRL", "test": "Inhibition of PLCgamma1"}, "NIH3T3": {"test_system": "NIH3T3", "test": "Inhibition of PDGF-induced phosphotidyl inositol turnover in PLCgamma1 expressing mouse NIH3T3 cells", "assay_type": "functional, cell-based"}, "HT1197": {"test_system": "HT1197", "test": "Antiproliferative activity against PLCgamma1 expressing human HT1197 cells", "assay_type": "functional, cell-based"}, "HCT-15": {"test_system": "HCT-15", "test": "Antiproliferative activity against PLCgamma1 expressing human HCT15 cells", "assay_type": "functional, cell-based"}}}
{"compound": "O=c1cc(-c2ccc(O)c(-c3c(O)cc(O)c4c(=O)cc(-c5ccc(O)cc5)oc34)c2)oc2cc(O)cc(O)c12", "note": "[AMENTOFLAVONE]", "values": [{"measurement": "IC50", "setting": "[1]", "value": 29, "unit": "µM"}, {"measurement": "IC50", "setting": "NIH3T3", "value": 9.2, "unit": "µM"}]}
{"compound": "COc1cccc2c1C(=O)c1c(O)c3c(c(O)c1C2=O)C[C@@](O)(C(=O)CO)C[C@@H]3O[C@H]1C[C@H](N)[C@H](O)[C@H](C)O1", "note": "[DOXORUBICIN]", "values": [{"measurement": "IC50", "setting": "HT1197", "value": 0.03, "unit": "µg/mL"}, {"measurement": "IC50", "setting": "HCT-15", "value": 13.4, "unit": "µg/mL"}]}
